Assays:
[1] = mice receiving the compound alone; highest concentration of UL1-012 (16 mg/kg i.v. every 6 h)
[2] = target: T1, S. pneumoniae cell lysate containing native pneumolysin (Streptococcus pneumoniae serotype 2, UniProt Q04IN8); assay: Ex vivo meningitis assay: effect of bacterial lysate on ciliary function of cultured ependymal cells; type: cell-based; settings: rat ependymal cells; lysate from penicillin-lysed S. pneumoniae; FIG. 2.B
T1 construct: S. pneumoniae cell lysate containing native pneumolysin; endogenous in cells
T1 sequence (Q04IN8 whole entry): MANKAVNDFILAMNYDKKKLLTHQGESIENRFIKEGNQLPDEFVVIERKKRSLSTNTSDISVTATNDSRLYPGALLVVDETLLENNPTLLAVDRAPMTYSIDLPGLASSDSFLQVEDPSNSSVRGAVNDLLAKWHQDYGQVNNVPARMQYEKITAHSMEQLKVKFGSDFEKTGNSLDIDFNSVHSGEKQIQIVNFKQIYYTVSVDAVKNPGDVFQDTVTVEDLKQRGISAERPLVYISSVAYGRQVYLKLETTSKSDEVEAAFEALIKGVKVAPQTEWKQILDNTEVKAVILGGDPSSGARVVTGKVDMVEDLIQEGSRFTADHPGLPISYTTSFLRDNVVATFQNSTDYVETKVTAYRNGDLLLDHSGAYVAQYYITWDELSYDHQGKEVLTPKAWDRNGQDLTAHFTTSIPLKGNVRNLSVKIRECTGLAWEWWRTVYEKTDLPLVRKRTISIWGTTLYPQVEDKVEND
Excerpt: (§1) The ependymal ciliated cells line the cerebral ventricles of the brain and the central canal of the spinal cord and are covered with cilia responsible for the circulation of the cerebrospinal fluid (CSF) around the central nervous system. This layer acts as a selective brain barrier to and from the cerebrospinal fluid and plays a role in controlling the CSF volume. […] This model is based on culturing and differentiating ciliated ependymal cells from neonate rat brains, which recreate the in vivo situation, where cells lining the brain ventricles, are exposed to S. pneumoniae and its toxic products.
(§2) Ependymal cell cultures were prepared by the method previously described [Microb. Pathog. (1999) 27 303-309]. Tissue culture trays were coated with bovine fibronectin and incubated at 37° C. in 5% (v/v) CO2 for 2 h before use. […]
(§3) After approximately two weeks, the cells were fully ciliated and ready for experiments. […] Beating cilia were recorded before and after exposure over 30 min, with a digital high-speed video camera at a rate of 500 frames/s. The recorded video sequences were played back at reduced frame rates and the ciliary beat frequency (CBF) was determined by the following equation: […]

Perfringolysin O (PFO) = Perfringolysin O (PFO) (Clostridium perfringens, UniProt P0C2E9); assay: cell-based
Sequence of Perfringolysin O (PFO) (P0C2E9 29-500 limits assumed): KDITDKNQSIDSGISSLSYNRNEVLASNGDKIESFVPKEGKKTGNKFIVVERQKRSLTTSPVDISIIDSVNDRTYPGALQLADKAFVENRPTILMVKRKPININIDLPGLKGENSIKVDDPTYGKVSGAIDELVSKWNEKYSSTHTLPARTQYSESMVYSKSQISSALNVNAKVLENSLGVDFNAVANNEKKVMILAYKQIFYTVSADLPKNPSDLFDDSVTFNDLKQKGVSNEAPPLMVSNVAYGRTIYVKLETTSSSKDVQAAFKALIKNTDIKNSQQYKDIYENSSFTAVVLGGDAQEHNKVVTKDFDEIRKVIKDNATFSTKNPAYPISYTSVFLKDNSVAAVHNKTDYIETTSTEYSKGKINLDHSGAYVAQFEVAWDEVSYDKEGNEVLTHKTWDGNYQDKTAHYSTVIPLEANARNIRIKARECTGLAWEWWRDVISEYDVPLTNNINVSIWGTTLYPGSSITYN

Listeriolysin O (LLO) = Listeriolysin O (LLO) (Listeria monocytogenes serovar 1/2a, UniProt P13128); assay: Inhibition of the haemolytic activity of Listeriolysin O; type: cell-based; settings: toxin LLO; haemolysis assay protocol of Section A
Sequence of Listeriolysin O (LLO) (P13128 25-529): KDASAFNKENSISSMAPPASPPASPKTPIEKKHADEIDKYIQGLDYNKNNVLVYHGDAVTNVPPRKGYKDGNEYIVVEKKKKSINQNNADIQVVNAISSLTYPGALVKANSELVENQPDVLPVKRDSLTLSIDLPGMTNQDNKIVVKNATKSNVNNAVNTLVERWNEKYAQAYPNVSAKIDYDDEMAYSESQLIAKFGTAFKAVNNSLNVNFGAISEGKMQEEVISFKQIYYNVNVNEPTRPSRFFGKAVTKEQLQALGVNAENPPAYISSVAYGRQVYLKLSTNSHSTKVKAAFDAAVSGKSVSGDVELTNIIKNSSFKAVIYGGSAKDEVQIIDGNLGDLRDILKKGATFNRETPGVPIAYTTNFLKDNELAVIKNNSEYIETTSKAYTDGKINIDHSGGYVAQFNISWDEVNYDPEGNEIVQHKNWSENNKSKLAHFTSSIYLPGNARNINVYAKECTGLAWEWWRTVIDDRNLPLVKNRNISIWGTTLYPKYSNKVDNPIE

Suilysin (SLY) = Suilysin (SLY) (Streptococcus suis, UniProt Q55996); assay: Inhibition of the haemolytic activity of Suilysin; type: cell-based; settings: toxin SLY; haemolysis assay protocol of Section A
Sequence of Suilysin (SLY) (Q55996 28-497 limits assumed): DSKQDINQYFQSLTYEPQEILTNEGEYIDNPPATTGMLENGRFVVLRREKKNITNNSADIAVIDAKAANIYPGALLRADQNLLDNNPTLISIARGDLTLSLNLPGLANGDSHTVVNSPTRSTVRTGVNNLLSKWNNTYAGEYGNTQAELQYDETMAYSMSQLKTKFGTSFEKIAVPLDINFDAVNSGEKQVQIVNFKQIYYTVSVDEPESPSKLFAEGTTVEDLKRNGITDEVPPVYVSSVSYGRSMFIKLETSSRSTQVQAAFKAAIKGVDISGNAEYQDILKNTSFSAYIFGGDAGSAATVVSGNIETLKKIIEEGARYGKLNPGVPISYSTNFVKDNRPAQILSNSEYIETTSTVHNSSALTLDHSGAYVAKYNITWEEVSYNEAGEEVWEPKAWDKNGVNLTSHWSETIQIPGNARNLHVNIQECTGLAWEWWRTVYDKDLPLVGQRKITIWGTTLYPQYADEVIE

pneumolysin [3] = target: T2, pneumolysin (Streptococcus pneumoniae serotype 2, UniProt Q04IN8); assay: Inhibition of pneumolysin-induced lactate dehydrogenase release from A549 cells; type: cell-based
T2 sequence (Q04IN8 whole entry): as the sequence (Q04IN8 whole entry) above

pneumolysin [4] = target: T2, pneumolysin; assay: Ex vivo meningitis assay: effect of pneumolysin on ciliary function of cultured ependymal cells; type: cell-based; settings: rat ependymal cells; UL1-012 1.56 μM-25 μM; FIG. 2.A
Excerpt: as §1, §2, §3

Anthrolysin O (ALO) = Anthrolysin O (ALO) (Bacillus anthracis, UniProt A0A6L7HHW7); assay: cell-based
Sequence of Anthrolysin O (ALO) (A0A6L7HHW7 35-512 limits assumed): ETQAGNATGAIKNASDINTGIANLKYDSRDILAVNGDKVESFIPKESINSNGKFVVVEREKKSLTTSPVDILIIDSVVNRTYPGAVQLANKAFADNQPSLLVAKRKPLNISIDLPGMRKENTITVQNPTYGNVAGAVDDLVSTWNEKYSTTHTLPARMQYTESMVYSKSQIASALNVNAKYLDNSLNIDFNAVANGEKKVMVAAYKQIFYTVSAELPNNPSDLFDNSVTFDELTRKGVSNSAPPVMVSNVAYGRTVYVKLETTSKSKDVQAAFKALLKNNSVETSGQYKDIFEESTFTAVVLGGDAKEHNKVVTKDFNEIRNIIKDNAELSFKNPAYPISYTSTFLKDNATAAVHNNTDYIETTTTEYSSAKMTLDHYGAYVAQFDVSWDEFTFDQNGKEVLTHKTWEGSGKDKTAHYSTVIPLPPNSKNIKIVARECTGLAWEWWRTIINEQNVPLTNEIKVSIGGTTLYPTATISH

[5] = system: Streptococcus pneumoniae strain D39; assay: In vivo efficacy assay using a mouse pneumonia model; settings: MF1 mice
Streptolysin O (SLO) = target: T3, Streptolysin O (SLO) (Streptococcus pyogenes serotype M3, UniProt P0DF97); assay: Inhibition of the haemolytic activity of Streptolysin O; type: cell-based, Group A Streptococci; settings: toxin SLO; haemolysis assay protocol of Section A
T3 sequence (P0DF97 34-571): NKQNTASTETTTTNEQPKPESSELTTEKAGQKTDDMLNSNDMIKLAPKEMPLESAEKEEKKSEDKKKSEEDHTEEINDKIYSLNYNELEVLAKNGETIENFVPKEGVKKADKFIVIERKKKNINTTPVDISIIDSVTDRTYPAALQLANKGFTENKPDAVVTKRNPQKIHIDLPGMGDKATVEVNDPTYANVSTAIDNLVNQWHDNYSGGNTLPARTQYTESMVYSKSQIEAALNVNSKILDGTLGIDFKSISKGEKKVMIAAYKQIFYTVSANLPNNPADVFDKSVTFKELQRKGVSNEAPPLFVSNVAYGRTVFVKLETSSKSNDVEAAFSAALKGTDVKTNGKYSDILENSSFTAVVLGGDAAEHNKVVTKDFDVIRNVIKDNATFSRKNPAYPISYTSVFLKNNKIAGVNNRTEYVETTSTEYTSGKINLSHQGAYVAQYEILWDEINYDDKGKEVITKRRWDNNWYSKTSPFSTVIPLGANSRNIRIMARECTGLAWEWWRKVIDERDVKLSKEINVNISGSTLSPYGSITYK

pneumolysin [6] = target: T2, pneumolysin; assay: Inhibition of the haemolytic activity of pneumolysin (sheep erythrocytes); type: cell-based; settings: IC50, inhibition of pneumolysin-induced haemolysis of sheep erythrocytes
[7] = system: Human lung epithelial cells (A549); settings: concentrations tested, up to approximately 150 times the therapeutic IC50 value

SMILES: CCOC(=O)c1c(O)c(O)c(C(=O)N(C)C)n1-c1ccc(OC)cc1 [UL1-012, ethyl 5-(dimethylcarbamoyl)-3,4-dihydroxy-1-(4-methoxyphenyl)-1H-pyrrole-2-carboxylate]
- visible adverse effects [1]: no visible adverse effects
- ciliary beating frequency (CBF) in the presence of bacterial lysate [2]: significantly prevented the drop of the CBF
- IC50 (Perfringolysin O (PFO)): < 10 µM
- IC50 (Listeriolysin O (LLO)): < 10 µM
- IC50 (Suilysin (SLY)): < 10 µM
- IC50 (pneumolysin [3]): < 0.4 µM
- ciliary beating frequency (CBF) in the presence of pneumolysin (pneumolysin [4]): No significant loss of the CBF
- IC50 (Anthrolysin O (ALO)): < 10 µM
- survival ([5]; 4 mg/kg intravenously every 6 h, up to approximately 40 h after infection, p<0.05, FIG. 5): significant improvement in the survival
- survival, mice surviving at endpoint ([5]; 16 mg/kg intravenously every 6 h, 72 h post infection, p<0.05, FIG. 6): 50%
- disease score (signs of disease) ([5]; 16 mg/kg intravenously every 6 h, p<0.05 at 30 h, 36 h, 60 h and 66 h post-infection, FIG. 7): significant attenuation of the signs of the disease
- IC50 (Streptolysin O (SLO)): < 10 µM
- IC50 (pneumolysin [6]; class symbols of Table 1): < 10 µM
- IC50 (pneumolysin [6]; specific values): 0.15 µM
- cytotoxicity (LDH release, compound alone) [7]: does not exhibit cytotoxicity
